# In patent publication US9895352B2, “Indolinone compounds and uses thereof” (Oncternal Therapeutics, Inc., priority 2014, dated 2018):
# “And” between values parts separate entries of the source, which are not always exact repeats. Equal values may be shown once. Read-outs that look alike come from different tables or passages of the source.
# Columns and labels:
# [1] = system: SKES cells (Ewing Sarcoma cell line); assay: CCK-8 tetrazolium tumor cell growth inhibition, SKES; assay type: cell-based; details: Homo sapiens
# Protocol: (§1) A modified tetrazolium salt assay using the CCK-8 kit (Sigma-Aldrich; St Louis, Mo.) was used to measure the inhibition of human tumor cell growth. Tumor cells (5000-7500 per well) were added to 96 well plates and allowed to attach for 4-5 hours. Compounds were serially diluted and added in triplicate at a concentration of 0.02 to 5 μM. DMSO was included as a vehicle control. Cells were incubated in the presence of compound for 3 days. After incubation CCK-8 reagent was added to each well and incubated for 2-4 hours. Viable cells were quantitated spectrophotometrically at a wavelength of 450 nm. Percent viability of each sample was calculated from the A450 values as follows: % viability=(A450 nm sample/A450 nm DMSO-treated cells×100). […] IC50 activities of particular compounds were determined using SKES cells (Ewing Sarcoma cell line).
# A4573 = assay: CCK-8 tetrazolium tumor cell growth inhibition, A4573; assay type: cell-based; details: Homo sapiens; A4573, ES, EWS-FLI1 Type 3
# Protocol: as §1
# TC71 = assay: CCK-8 tetrazolium tumor cell growth inhibition, TC71; assay type: cell-based; details: Homo sapiens, TC-71; TC71, ES, EWS-FLI1 Type 1
# Protocol: as §1
# LNCap = assay: CCK-8 tetrazolium tumor cell growth inhibition, LNCap; assay type: cell-based; details: Homo sapiens, Prostate, rearranged ETV1
# Protocol: as §1
# PC3 = assay: CCK-8 tetrazolium tumor cell growth inhibition, PC3; assay type: cell-based; details: Homo sapiens, PC-3; PC3, Prostate, no ETS rearrangement
# Protocol: as §1
# MDA-MB-231 = assay: CCK-8 tetrazolium tumor cell growth inhibition, MDA-MB-231; assay type: cell-based; details: Homo sapiens; MDA-MB-231, Breast, increased ETV1
# Protocol: as §1
# MCF7 = assay: CCK-8 tetrazolium tumor cell growth inhibition, MCF7; assay type: cell-based; details: Homo sapiens; MCF7, Breast, no ETS rearrangement
# Protocol: as §1
# BxPC3 = assay: CCK-8 tetrazolium tumor cell growth inhibition, BxPC3; assay type: cell-based; details: Homo sapiens, BXPC-3; BxPC3, Pancreas, increased FLI1
# Protocol: as §1
# PANC1 = assay: CCK-8 tetrazolium tumor cell growth inhibition, PANC1; assay type: cell-based; details: Homo sapiens, PANC-1; PANC1, Pancreas, no ETS rearrangement
# Protocol: as §1
# A4573 tumor cells [2] = assay: A4573 xenograft study in mice; assay type: in vivo; details: A4573 tumors, relative to vehicle control
# A4573 tumor cells [3] = assay: similar rat xenograft study; assay type: in vivo; details: compared to the vehicle control
# [4] = Pharmacokinetics after IV and oral administration; assay type: in vivo; details: BALB/c mice or Sprague Dawley rats; for Cmax / Tmax / bioavailability / half-life: plasma; for Tmax: read-out: Tmax
# Protocol: (§2) Certain pharmacokinetics parameters were determined for certain compounds in vivo for intravenous and oral administration. Briefly, compounds were formulated and administered using IV bolus, continuous IV infusion or oral administration. Blood was collected at multiple time points over 24 hours and processed into plasma. Plasma was analyses for parent using LC/MS/MS. Certain parameters for certain compounds were obtained in duplicate.
# [5] = human liver microsome, no cofactor, 60 min
# [6] = rat liver microsome, no cofactor, 60 min
# [7] = mouse liver microsome, no cofactor, 60 min
# [8] = dog liver microsome, no cofactor, 60 min
# in vitro [9] = details: rat, microsomes
# in vitro [10] = details: dog, microsomes
# [11] = Half-life in mouse hepatocytes; assay type: in vitro ADME; details: read-out: Half life of cmpds
# Protocol: (§3) In another study, metabolism of compounds in hepatocytes from various species was examined. Hepatocytes were contacted with a compound, and the half-life of the compound was determined.
# [12] = Half-life in rat hepatocytes; assay type: in vitro ADME; details: read-out: Half life of cmpds
# Protocol: as §3
# [13] = Half-life in dog hepatocytes; assay type: in vitro ADME; details: read-out: Half life of cmpds
# Protocol: as §3
# [14] = Half-life in human hepatocytes; assay type: in vitro ADME; details: read-out: Half life of cmpds
# Protocol: as §3
# [15] = Pharmacokinetics, continuous infusion study in rat; assay type: in vivo; details: for Vd / clearance / half-life: plasma, iv
# Protocol: as §2
# [16] = Pharmacokinetics, continuous infusion study in dog; assay type: in vivo; details: for Vd / clearance / half-life: plasma, iv
# Protocol: as §2
# in vitro [17] = details: mouse, microsomes
# [18] = 20 mg/kg po, labrasol/tetraglycol 9:1
# [19] = 20 mg/kg po, labrasol:tetraglycol:water 72:8:20
# [20] = iv, 5 mg/kg, 5 mg/kg IV, captisol
# [21] = po, 20 mg/kg, 20 mg/kg po, labrasol/tetraglycol 9:1
# [22] = po, 20 mg/kg, 20 mg/kg po, labrasol:tetraglycol:water 72:8:20
# [23] = iv, 10 mg/kg, 10 mg/kg IV, captisol
# [24] = po, 25 mg/kg, 25 mg/kg po, labrasol:tetraglycol:water 72:8:20
# [25] = po, 100 mg/kg, 100 mg/kg po, PEG-400/tween
# [26] = po, 100 mg/kg, 100 mg/kg po, labrasol/tetraglycol
smiles,measurement,setting,value
"COc1ccc(C(=O)CC2(O)C(=O)Nc3c(Cl)ccc(Cl)c32)cc1 (single isomer, unassigned) [Cmpd 2, 4,7-Dichloro-3-hydroxy-3-[2-(4-methoxyphenyl-2-oxoethyl)]-1,3-dihydroindol-2-one]",IC50,"[1]; 72 h, SKES cells, 3 days with compound, CCK-8 (TABLE 3)",< 5 µM
same,IC50,"[1]; SKES, ES, EWS-FLI1 Type 2",< 5 µM
same,IC50,A4573,< 5 µM
same,IC50,TC71,< 5 µM
same,IC50,LNCap,< 5 µM
same,IC50,PC3,> 5 µM
same,IC50,MDA-MB-231,< 5 µM
same,IC50,MCF7,> 5 µM
same,IC50,BxPC3,< 5 µM
same,IC50,PANC1,> 5 µM
same,tumor growth inhibition (TGI),A4573 tumor cells [2]; 200 mg/kg bid oral,did not show TGI
same,tumor growth inhibition (TGI),A4573 tumor cells [3],87%
same,AUC,"[4]; 5 mg/kg IV, captisol",1991 h * (ng/mL)
same,% F,[4]; [18],49%
same,AUC,[4]; [18],3896 h * (ng/mL) and 3890 h * (ng/mL)
same,% F,[4]; [19],57%
same,AUC,[4]; [19],4574 h * (ng/mL)
same,Cmax,[4]; [20],9.38 µg/mL
same,Tmax,[4]; [20],0.033 h
same,Cmax,[4]; [21],2.24 µg/mL
same,bioavailability,[4]; [21],40%
same,half-life,[4]; [21],1.6 h
same,Tmax,[4]; [21],1 h
same,Cmax,[4]; [22],2.83 µg/mL
same,bioavailability,[4]; [22],47%
same,half-life,[4]; [22],1.5 h
same,Tmax,[4]; [22],1 h
same,Remaining (NCF = 60 min),[5],112.1%
same,Remaining (NCF = 60 min),[6],92.7%
same,Remaining (NCF = 60 min),[7],90.2%
same,Remaining (NCF = 60 min),[8],100.6%
same,half-life,in vitro [9],3.8 min
same,half-life,in vitro [10],0.505 h
"O=C(CC1(O)C(=O)Nc2c(Cl)ccc(Cl)c21)c1ccc(C2CC2)cc1 (single isomer, unassigned) [Cmpd 14, 4,7-Dichloro-3-(2-(4-cyclopropylphenyl)-2-oxoethyl)-3-hydroxyindolin-2-one]",IC50,A4573,< 5 µM
same,IC50,TC71,< 5 µM
same,IC50,LNCap,< 5 µM
same,IC50,PC3,> 5 µM
same,IC50,MDA-MB-231,< 5 µM
same,IC50,MCF7,> 5 µM
same,IC50,BxPC3,< 5 µM
same,IC50,PANC1,> 5 µM
same,tumor growth inhibition (TGI),A4573 tumor cells [2]; 100 mg/kg bid oral,57%
same,tumor growth inhibition (TGI),A4573 tumor cells [3],53%
same,half-life,[11],1.05 h
same,half-life,[12],0.457 h
same,half-life,[13],0.338 h
same,half-life,[14],1.26 h
same,Css(3-24 h),[15]; 24 mg/kg/day,344 ng/mL and 0.91 μM
same,MRT24-inf,[15]; 24 mg/kg/day,1.11 h
same,Css(3-24 h),[15]; 96 mg/kg/day,1376 ng/mL and 3.7 μM
same,MRT24-inf,[15]; 96 mg/kg/day,1.73 h
same,Vd,[15]; 24 mg/kg/day,3.46 L/kg
same,clearance,[15]; 24 mg/kg/day,2.92 L/h/kg
same,half-life,[15]; 24 mg/kg/day,0.824 h
same,Vd,[15]; 96 mg/kg/day,4.23 L/kg
same,clearance,[15]; 96 mg/kg/day,2.98 L/h/kg
same,half-life,[15]; 96 mg/kg/day,1 h
same,Css(3-24 h),[16]; 10 mg/kg/day,210 ng/mL and 0.56 μM
same,MRT24-inf,[16]; 10 mg/kg/day,2.5 h
same,Css(3-24 h),[16]; 25 mg/kg/day,466 ng/mL and 1.24 μM
same,MRT24-inf,[16]; 25 mg/kg/day,2.2 h
same,Vd,[16]; 10 mg/kg/day,5.64 L/kg
same,clearance,[16]; 10 mg/kg/day,2.02 L/h/kg
same,half-life,[16]; 10 mg/kg/day,1.9 h
same,Vd,[16]; 25 mg/kg/day,5.66 L/kg
same,clearance,[16]; 25 mg/kg/day,2.24 L/h/kg
same,half-life,[16]; 25 mg/kg/day,1.7 h
same,AUC,"[4]; 5 mg/kg IV, captisol",4131 h * (ng/mL)
same,AUC,"[4]; 10 mg/kg IV, captisol",6059 h * (ng/mL)
same,AUC,"[4]; 25 mg/kg po, labrasol:tetraglycol:water 72:8:20",13152 h * (ng/mL)
same,AUC,"[4]; 100 mg/kg po, PEG-400/tween",92219 h * (ng/mL)
same,AUC,"[4]; 100 mg/kg po, labrasol/tetraglycol",146167 h * (ng/mL)
same,Cmax,[4]; [20],10.9 µg/mL
same,half-life,[4]; [20],0.8 h
same,Tmax,[4]; [20],0.03 h
same,Cmax,[4]; [23],39.8 µg/mL
same,half-life,[4]; [23],1.43 h
same,Tmax,[4]; [23],0.03 h
same,Cmax,[4]; [24],2.77 µg/mL
same,bioavailability,[4]; [24],64%
same,half-life,[4]; [24],3.1 h
same,Tmax,[4]; [24],1 h
same,Cmax,[4]; [25],26 µg/mL
same,bioavailability,[4]; [25],100%
same,half-life,[4]; [25],3.83 h
same,Tmax,[4]; [25],0 h
same,Cmax,[4]; [26],33 µg/mL
same,bioavailability,[4]; [26],100%
same,half-life,[4]; [26],7.71 h
same,Tmax,[4]; [26],2 h
same,Remaining (NCF = 60 min),[5],104.5%
same,Remaining (NCF = 60 min),[6],97.6%
same,Remaining (NCF = 60 min),[7],102.0%
same,Remaining (NCF = 60 min),[8],97.1%
same,half-life,in vitro [9],2.8 min
same,half-life,in vitro [17],0.385 h
